# From PubChem BioAssay (NCI)
# Several values for one entry are separate records, joined by “and”; a condition that tells them apart may be missing. Equal entries are not always repeated.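 Compound exposure: 48 hours, 5 concentrations, 96-well plates. GI50 marks 50% less growth. TGI: concentration producing complete growth inhibition.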
# What was measured:
# Assay in all cases: DTP human tumour cell line panel, 48 h
# A549 NSCLC = system: A549 NSCLC
# COLO 205 colon = system: COLO 205 colon
# OVCAR-8 ovarian = system: OVCAR-8 ovarian
# HOP-92 NSCLC = system: HOP-92 NSCLC
# SK-OV-3 ovarian = system: SK-OV-3 ovarian
# SNB-75 CNS = system: SNB-75 CNS
# NCI-H460 lung = system: NCI-H460 lung
# T-47D breast = system: T-47D breast
# HT29 colon = system: HT29 colon
# RPMI-8226 leukemia = system: RPMI-8226 leukemia
Compound,GI50 (A549 NSCLC),TGI (A549 NSCLC),GI50 (COLO 205 colon),TGI (COLO 205 colon),GI50 (OVCAR-8 ovarian),TGI (OVCAR-8 ovarian),GI50 (HOP-92 NSCLC),TGI (HOP-92 NSCLC),GI50 (SK-OV-3 ovarian),TGI (SK-OV-3 ovarian),GI50 (SNB-75 CNS),TGI (SNB-75 CNS),GI50 (NCI-H460 lung),TGI (NCI-H460 lung),GI50 (T-47D breast),TGI (T-47D breast),GI50 (HT29 colon),TGI (HT29 colon),GI50 (RPMI-8226 leukemia),TGI (RPMI-8226 leukemia)
Cc1cc(NC(=O)c2ccc(NS(=O)(=O)CCO)cc2N2CCC3(CC2)CC3)nc(N2CCC(F)(F)CC2)n1,14.2 µM,30.4 µM,11 µM,28.4 µM,0.114 µM,24.4 µM,14.5 µM,29.6 µM,11.1 µM,26 µM,1.15 µM,15.6 µM,12.6 µM,26.8 µM,12.5 µM,31.8 µM,0.0755 µM,14.2 µM,9.74 µM,33.4 µM
Cc1ccc(-c2csc(N(C(=O)N3CCN(c4cc5c(cc4F)c(=O)c(C(=O)O)cn5C4CC4)CC3)c3ccccc3)n2)cc1,0.372 µM,> 100 µM,–,–,0.405 µM,> 100 µM,0.213 µM,0.798 µM,0.252 µM,0.787 µM,0.357 µM,4.17 µM,0.331 µM,> 100 µM,0.381 µM,> 100 µM,–,–,0.368 µM,> 100 µM
COc1ccc(NC(=O)C(=O)C(CC2C(=O)NC(=S)NC2=O)C(=O)c2ccc3ccccc3c2)c([N+](=O)[O-])c1 (stereo not drawn),–,> 100 µM,–,> 100 µM,–,> 100 µM,–,> 100 µM,–,> 100 µM,–,> 100 µM,–,> 100 µM,–,> 100 µM,–,> 100 µM,–,> 100 µM
COc1ccc(C(=S)c2cc(OC)c(OC)c(OC)c2)cc1OC(=O)CCl,0.0849 µM,> 100 µM,1.3 µM,17 µM,0.0355 µM,> 100 µM,0.55 µM,> 100 µM,0.0684 µM,> 100 µM,< 0.0114 µM,> 100 µM,0.0301 µM,12.9 µM,22.1 µM,79.9 µM,1.99 µM,> 100 µM,< 0.0196 µM,25.2 µM
Nc1ncc(-c2cnn(C3CCNCC3)c2)cc1-c1nc2ccccc2o1,1.2 µM,4.27 µM,1.55 µM,3.05 µM,2.59 µM,8.9 µM,0.553 µM,2.05 µM,1.11 µM,5.78 µM,1.31 µM,2.67 µM,0.998 µM,2.54 µM,1.67 µM,4.88 µM,0.441 µM,2.63 µM,0.857 µM,2.7 µM
CS(=O)(=O)CCNCc1ccc(-c2ccc3ncnc(Nc4ccc(OCc5ccccc5)c(C(F)(F)F)c4)c3c2)o1,8.23 µM,> 25 µM,4.97 µM,9.11 µM,8.39 µM,> 25 µM,4.9 µM,20.8 µM,7.19 µM,> 22.1 µM,6.21 µM,24.7 µM,4.8 µM,9.34 µM,6.76 µM,18.9 µM,4.95 µM,9.05 µM,7.37 µM,18.2 µM
O=C1C(=O)c2cc([N+](=O)[O-])ccc2-c2ccccc21,1.9 µM,3.56 µM,1.94 µM,3.49 µM,1.71 µM,3.6 µM,1.66 µM,3.12 µM,1.76 µM,3.14 µM,1.47 µM,2.8 µM,1.78 µM,3.35 µM,1.76 µM,3.77 µM,1.95 µM,3.9 µM,2.21 µM,4.7 µM
C[C@H]1CCC/C=C/[C@@H]2C[C@H](O)C[C@H]2[C@H](O)[C@H](S(=O)c2ccc(O)cc2)CC(=O)O1 (stereo partly drawn),0.0422 µM,> 100 µM,0.0183 µM,0.0544 µM,< 0.0167 µM,0.238 µM,0.0529 µM,> 100 µM,< 0.0205 µM,–,< 0.018 µM,> 100 µM,0.0168 µM,0.0703 µM,0.2 µM,0.67 µM,–,–,0.0922 µM,2.52 µM
N=c1ccn2c(n1)OC1C(OP(=O)(O)O)C(CO)OC12 (stereo not drawn),–,> 100 µM,–,> 100 µM,–,> 100 µM,–,> 100 µM,–,> 100 µM,–,> 100 µM,–,> 39.2 µM,–,> 100 µM,–,> 100 µM,–,> 100 µM
CC(=O)[O-].CC(=O)[O-].[Mn+2].c1ccc(/C(=N\Nc2ccccn2)c2ccccn2)cc1,–,14.4 µM,–,–,–,12.3 µM,0.205 µM,11 µM,0.0509 µM,17.5 µM,–,17.7 µM,–,1.14 µM,–,12 µM,0.00276 µM,11.3 µM,–,7.04 µM
C/C(=C\c1ccn(-c2ccc(N)c(C(F)(F)F)c2)n1)[C@@H]1C[C@@H]2O[C@]2(C)CCC[C@H](C)[C@H](O)[C@@H](C)C(=O)C(C)(C)[C@@H](O)CC(=O)O1,< 0.0116 µM,> 32.5 µM,0.00855 µM,0.111 µM,0.0177 µM,> 28.1 µM,0.0161 µM,23.9 µM,0.103 µM,> 27.9 µM,0.00413 µM,0.0876 µM,0.00848 µM,6.21 µM,0.0164 µM,28.3 µM,0.00542 µM,6.13 µM,< 0.0104 µM,10.5 µM
CCOC(=O)[C@H](CSSc1ncnc2cc[nH]c12)NC(=O)[C@@H](C)c1ccc2cc(OC)ccc2c1,6.36 µM,> 100 µM,1.85 µM,> 100 µM,1.82 µM,> 100 µM,0.39 µM,41 µM,2.77 µM,> 100 µM,0.388 µM,> 100 µM,3.04 µM,> 100 µM,0.0375 µM,> 100 µM,1.38 µM,> 100 µM,0.282 µM,> 100 µM
O=S(=O)(NCCNc1cc(-c2cn(-c3ccccc3)nc2-c2cccc(O)c2)ccn1)c1ccc(C(F)(F)F)cc1,3.89 µM,18.2 µM,1.81 µM,4 µM,4.91 µM,26.1 µM,1.97 µM,6.39 µM,3.79 µM,16.2 µM,2.63 µM,14 µM,3.23 µM,10.1 µM,1.84 µM,6.73 µM,2.04 µM,5.44 µM,2.77 µM,7.85 µM
CN(C)CC/C=C1\c2ccccc2Sc2ccc(Cl)cc21,2.87 µM,11.4 µM and 28.9 µM,1.54 µM,–,1.99 µM,4.44 µM and 32.8 µM,0.379 µM,3.39 µM and 18.7 µM,1.99 µM,5 µM and 30.7 µM,2.46 µM,7.61 µM and 25.2 µM,2.02 µM,3.95 µM and 28.8 µM,1.46 µM,–,1.98 µM,3.96 µM and 16.4 µM,2.69 µM,9.19 µM and 17.2 µM
C#C[C@@]1(O)[C@@H](CO)O[C@@H](n2cc(Cl)c3c(N)ncnc32)[C@@H]1O,–,–,0.106 µM,0.379 µM,0.0336 µM,1.48 µM,0.454 µM,3.53 µM,0.143 µM,0.517 µM,0.283 µM,0.714 µM,< 0.0215 µM,0.412 µM,0.0573 µM,0.489 µM,0.0436 µM,–,0.151 µM,0.607 µM
Cc1cc(Cl)ccc1Nc1sc(C(=O)c2cc3cc(Cl)ccc3o2)c(N)c1C#N,–,> 54.7 µM,–,> 100 µM,–,> 87.2 µM,–,> 100 µM,–,57 µM,–,20.8 µM,–,> 64.3 µM,–,> 100 µM,–,> 100 µM,–,> 62.4 µM
COc1ccc(C(=O)/C=C/c2cc3ccccc3[nH]c2=O)cc1,20 µM,> 100 µM,18.5 µM,35.3 µM,21.7 µM,> 100 µM,17 µM,37.3 µM,22.7 µM,> 91.6 µM,15.3 µM,34.8 µM,19.8 µM,> 43.4 µM,18.8 µM,> 100 µM,19.3 µM,> 80.5 µM,18.4 µM,> 100 µM
Nc1ccccc1NC(=O)c1ccc(CSc2nc(N3CCOCC3)c3cccn3n2)cc1,0.977 µM,> 100 µM,1.07 µM,2.96 µM,0.509 µM,> 100 µM,0.15 µM,0.991 µM,0.79 µM,6.43 µM,0.32 µM,15.6 µM,0.524 µM,> 100 µM,0.498 µM,> 100 µM,0.411 µM,4.54 µM,0.311 µM,1.26 µM
N=c1nc(N)c2cc3c(N)nc(=N)c3cc12,–,> 100 µM,–,> 100 µM,–,35 µM,–,25.6 µM,–,72.5 µM,–,42.6 µM,–,> 100 µM,–,47.8 µM,–,> 100 µM,–,23.9 µM
Oc1c(Br)cc(Br)cc1CN(Cc1cc(Br)cc(Br)c1O)C1CCCCC1,–,> 100 µM,–,29.2 µM,–,> 100 µM,–,> 100 µM,–,> 100 µM,–,71.5 µM,–,–,–,> 100 µM,–,64.8 µM,–,> 100 µM
C=C1C(=O)O[C@@H]2[C@H]1CC[C@H](C)[C@]1(O)CCC(=O)[C@@]21C,–,> 10 µM,–,> 10 µM,–,> 10 µM,–,> 10 µM,–,> 10 µM,–,> 10 µM,–,–,–,> 10 µM,–,> 10 µM,–,> 10 µM
